ChEMBL document CHEMBL4396937, “Synthesis of new triazole fused imidazo[2,1-b]thiazole hybrids with emphasis on Staphylococcus aureus virulence factors” (Bioorg Med Chem Lett, 2019)
≈ marks a conversion by molar mass, not a printed value. Calls of active or inactive are those of the source. The rule behind the calls is not given here.

What was measured:
Assay type in all cases: functional
[1] = test system: Bacillus subtilis; test: Bactericidal activity against Bacillus subtilis MTCC 121 assessed as reduction in bacterial survival incubated for 24 hrs followed by transfer of microbial suspension to agar plates and measured at 24 hrs post transfer by agar well diffusion method
[2] = test system: Staphylococcus aureus; test: Antibacterial activity against Staphylococcus aureus MLS-16 MTCC 2940 assessed as reduction in bacterial growth incubated for 24 hrs by agar well diffusion method
[3] = test system: Micrococcus luteus; test: Bactericidal activity against Micrococcus luteus MTCC 2470 assessed as reduction in bacterial survival incubated for 24 hrs followed by transfer of microbial suspension to agar plates and measured at 24 hrs post transfer by agar well diffusion method
[4] = test system: Candida albicans; test: Fungicidal activity against Candida albicans MTCC 3017 assessed as reduction in fungal survival incubated for 24 hrs followed by transfer of microbial suspension to agar plates and measured at 24 hrs post transfer by agar well diffusion method; conditions: MTCC 3017, 24 h
[5] = test system: Pseudomonas aeruginosa; test: Bactericidal activity against Pseudomonas aeruginosa MTCC 2453 assessed as reduction in bacterial survival incubated for 24 hrs followed by transfer of microbial suspension to agar plates and measured at 24 hrs post transfer by agar well diffusion method
[6] = test system: Bacillus subtilis; test: Antibacterial activity against Bacillus subtilis MTCC 121 assessed as reduction in bacterial growth incubated for 24 hrs by agar well diffusion method
[7] = test system: Staphylococcus aureus; test: Antibacterial activity against Staphylococcus aureus MTCC 96 assessed as reduction in bacterial growth incubated for 24 hrs by agar well diffusion method
[8] = test system: Candida albicans; test: Antifungal activity against Candida albicans MTCC 3017 assessed as reduction in fungal growth incubated for 24 hrs by agar well diffusion method; conditions: MTCC 3017, 24 h
[9] = test system: Micrococcus luteus; test: Antibacterial activity against Micrococcus luteus MTCC 2470 assessed as reduction in bacterial growth incubated for 24 hrs by agar well diffusion method
[10] = test system: Raoultella planticola; test: Bactericidal activity against Klebsiella planticola MTCC 530 assessed as reduction in bacterial survival incubated for 24 hrs followed by transfer of microbial suspension to agar plates and measured at 24 hrs post transfer by agar well diffusion method
[11] = test system: Escherichia coli; test: Bactericidal activity against Escherichia coli MTCC 739 assessed as reduction in bacterial survival incubated for 24 hrs followed by transfer of microbial suspension to agar plates and measured at 24 hrs post transfer by agar well diffusion method
[12] = test system: Escherichia coli; test: Antibacterial activity against Escherichia coli MTCC 739 assessed as reduction in bacterial growth incubated for 24 hrs by agar well diffusion method
[13] = test system: Staphylococcus aureus; test: Bactericidal activity against Staphylococcus aureus MLS-16 MTCC 2940 assessed as reduction in bacterial survival incubated for 24 hrs followed by transfer of microbial suspension to agar plates and measured at 24 hrs post transfer by agar well diffusion method
[14] = test system: Pseudomonas aeruginosa; test: Antibacterial activity against Pseudomonas aeruginosa MTCC 2453 assessed as reduction in bacterial growth incubated for 24 hrs by agar well diffusion method
[15] = test system: Staphylococcus aureus; test: Bactericidal activity against Staphylococcus aureus MTCC 96 assessed as reduction in bacterial survival incubated for 24 hrs followed by transfer of microbial suspension to agar plates and measured at 24 hrs post transfer by agar well diffusion method
[16] = test system: Raoultella planticola; test: Antibacterial activity against Klebsiella planticola MTCC 530 assessed as reduction in bacterial growth incubated for 24 hrs by agar well diffusion method

Row | SMILES | MIC ([2]; MLS-16 MTCC 2940, 24 h) [µg/mL] | MIC ([6]; MTCC 121, 24 h) [µg/mL] | MIC ([7]; MTCC 96, 24 h) [µg/mL] | MIC [8] [µg/mL] | MIC ([9]; MTCC 2470, 24 h) [µg/mL] | MIC ([12]; MTCC 739, 24 h) [µg/mL] | MIC ([14]; MTCC 2453, 24 h) [µg/mL] | MBC ([1]; MTCC 121, 24 h) [µg/mL] | MBC ([3]; MTCC 2470, 24 h) [µg/mL] | MFC [4] [µg/mL] | MBC ([5]; MTCC 2453, 24 h) [µg/mL] | MBC ([10]; MTCC 530, 24 h) [µg/mL] | MBC ([11]; MTCC 739, 24 h) [µg/mL] | MBC ([13]; MLS-16 MTCC 2940, 24 h) [µg/mL] | MBC ([15]; MTCC 96, 24 h) [µg/mL] | MIC ([16]; MTCC 530, 24 h) [µg/mL] | other results
1 | O=C(c1cn(-c2ccc(C(F)(F)F)cc2)nn1)c1c(-c2ccc(Cl)cc2)nc2sccn12 | > 125 | 15.6 (≈ 32.9 µM) | > 125 | 15.6 (≈ 32.9 µM) | > 125 | > 125 | > 125 | 31.2 (≈ 65.8 µM) | > 125 | 15.6 (≈ 32.9 µM) | > 125 | > 125 | > 125 | > 125 | > 125 | > 125 | –
2 | COc1ccc(-c2nc3sccn3c2C(=O)c2cn(-c3ccc(F)cc3)nn2)cc1 | 7.8 (≈ 18.6 µM) | 3.9 (≈ 9.3 µM) | 3.9 (≈ 9.3 µM) | 15.6 (≈ 37.2 µM) | 3.9 (≈ 9.3 µM) | > 125 | > 125 | 7.8 (≈ 18.6 µM) | 7.8 (≈ 18.6 µM) | 31.2 (≈ 74.4 µM) | > 125 | > 125 | > 125 | 15.6 (≈ 37.2 µM) | 7.8 (≈ 18.6 µM) | > 125 | –
3 | COc1cc(-n2cc(C(=O)c3c(-c4ccccc4)nc4sccn34)nn2)cc(OC)c1OC | 7.8 (≈ 16.9 µM) | 3.9 (≈ 8.45 µM) | 3.9 (≈ 8.45 µM) | 15.6 (≈ 33.8 µM) | 3.9 (≈ 8.45 µM) | > 125 | > 125 | 7.8 (≈ 16.9 µM) | 7.8 (≈ 16.9 µM) | 31.2 (≈ 67.6 µM) | > 125 | 62.5 (≈ 135 µM) | > 125 | 15.6 (≈ 33.8 µM) | 7.8 (≈ 16.9 µM) | 31.2 (≈ 67.6 µM) | –

Continued by falling MIC [8], values first:

Row | MIC ([2]; MLS-16 MTCC 2940, 24 h) [µg/mL] | MIC ([6]; MTCC 121, 24 h) [µg/mL] | MIC ([7]; MTCC 96, 24 h) [µg/mL] | MIC [8] [µg/mL] | MIC ([9]; MTCC 2470, 24 h) [µg/mL] | MIC ([12]; MTCC 739, 24 h) [µg/mL] | MIC ([14]; MTCC 2453, 24 h) [µg/mL] | SMILES | MBC ([1]; MTCC 121, 24 h) [µg/mL] | MBC ([3]; MTCC 2470, 24 h) [µg/mL] | MFC [4] [µg/mL] | MBC ([5]; MTCC 2453, 24 h) [µg/mL] | MBC ([10]; MTCC 530, 24 h) [µg/mL] | MBC ([11]; MTCC 739, 24 h) [µg/mL] | MBC ([13]; MLS-16 MTCC 2940, 24 h) [µg/mL] | MBC ([15]; MTCC 96, 24 h) [µg/mL] | MIC ([16]; MTCC 530, 24 h) [µg/mL] | other results
4 | 7.8 (≈ 19.4 µM) | 3.9 (≈ 9.71 µM) | 7.8 (≈ 19.4 µM) | 15.6 (≈ 38.9 µM) | 3.9 (≈ 9.71 µM) | > 125 | > 125 | COc1ccc(-n2cc(C(=O)c3c(-c4ccccc4)nc4sccn34)nn2)cc1 | 7.8 (≈ 19.4 µM) | 7.8 (≈ 19.4 µM) | 31.2 (≈ 77.7 µM) | > 125 | 31.2 (≈ 77.7 µM) | > 125 | 15.6 (≈ 38.9 µM) | 15.6 (≈ 38.9 µM) | 15.6 (≈ 38.9 µM) | –
5 | 7.8 (≈ 18.1 µM) | 7.8 (≈ 18.1 µM) | 15.6 (≈ 36.2 µM) | 15.6 (≈ 36.2 µM) | 15.6 (≈ 36.2 µM) | > 125 | > 125 | COc1ccc(-c2nc3sccn3c2C(=O)c2cn(-c3ccc(OC)cc3)nn2)cc1 | 15.6 (≈ 36.2 µM) | 31.2 (≈ 72.3 µM) | 31.2 (≈ 72.3 µM) | > 125 | 15.6 (≈ 36.2 µM) | > 125 | 15.6 (≈ 36.2 µM) | 31.2 (≈ 72.3 µM) | 7.8 (≈ 18.1 µM) | –
6 | 7.8 (≈ 17.9 µM) | 3.9 (≈ 8.95 µM) | 3.9 (≈ 8.95 µM) | 15.6 (≈ 35.8 µM) | 3.9 (≈ 8.95 µM) | > 125 | > 125 | COc1ccc(-c2nc3sccn3c2C(=O)c2cn(-c3ccc(Cl)cc3)nn2)cc1 | 7.8 (≈ 17.9 µM) | 7.8 (≈ 17.9 µM) | 31.2 (≈ 71.6 µM) | > 125 | > 125 | > 125 | 15.6 (≈ 35.8 µM) | 7.8 (≈ 17.9 µM) | > 125 | –
7 | 15.6 (≈ 33.2 µM) | 15.6 (≈ 33.2 µM) | 15.6 (≈ 33.2 µM) | 7.8 (≈ 16.6 µM) | 7.8 (≈ 16.6 µM) | > 125 | > 125 | COc1ccc(-c2nc3sccn3c2C(=O)c2cn(-c3ccc(C(F)(F)F)cc3)nn2)cc1 | 31.2 (≈ 66.5 µM) | 15.6 (≈ 33.2 µM) | 15.6 (≈ 33.2 µM) | > 125 | > 125 | > 125 | 31.2 (≈ 66.5 µM) | 31.2 (≈ 66.5 µM) | > 125 | –
8 | – | – | – | 3.9 (≈ 9.37 µM) | – | – | – | Clc1ccc(COC(Cn2ccnc2)c2ccc(Cl)cc2Cl)c(Cl)c1 (stereo not drawn) [MICONAZOLE] | – | – | 3.9 (≈ 9.37 µM) | – | – | – | – | – | – | MBC [1]: inactive; MIC [2]: inactive; MBC [3]: inactive; MBC [5]: inactive; MIC [6]: inactive; MIC [7]: inactive; MIC [9]: inactive; MBC [10]: inactive; MBC [11]: inactive; MIC [12]: inactive; MBC [13]: inactive; MIC [14]: inactive; MBC [15]: inactive; MIC [16]: inactive
